Laboratory results from patent US9714232B2, “Substituted piperazine compounds and methods of use thereof” (Sunshine Lake Pharma Co., Ltd., priority 2013, dated 2017).

Legend:
[1] = target: serotonin transporter in rat synaptosome (Rattus norvegicus (Rat), UniProt P31652); assay: Inhibitory effect on [3H]5-HT uptake in rat synaptosome; assay type: biochemical; conditions: rat brain synaptosomes, 0.1 μCi [3H]5-HT, 37° C., 15 minutes
Method: The synaptosomes (150 μg) prepared from a rat brain were incubated at 37° C. for 15 minutes with 0.1 μCi [^3H]5-HT in the absence or presence of the test compound or the reference compound in a buffer solution containing 106.2 mM NaCl, 4.5 mM KCl, 2.25 mM MgSO4, 1.08 mM NaH2PO4, 22.5 mM NaHCO3, 9.9 mM glucose, 9 μM EGTA and 45 μM ascorbic acid (pH 7.4).
The basal control activity was determined by incubating the same mixture at 4° C. for 15 minutes in the presence of 10 μM imipramine to block the uptake of 5-HT, which was taken as the standard reference compound and tested in each experiment at several concentrations to obtain an inhibition curve.
Following the incubation, the samples were filtered rapidly under vacuum through glass fiber filters (GF/B, Packard) and rinsed twice with an ice-cold incubation buffer using a 96-sample cell harvester (Unifilter, Packard) to eliminate free [^3H]5-HT. The filters were dried and the retained radioactivity was measured in a scintillation counter (Topcount, Packard) using a scintillation cocktail (Microscint 0, Packard). The experimental results were expressed as a percent inhibition of the control uptake of [^3H]5-HT.
Inhibition of serotonin transporter in rat synaptosome was measured by the concentrations of [^3H]5-HT.

[2] = target: human 5-HT1A receptor (Homo sapiens (Human), UniProt P08908); assay: Affinity for human 5-HT1A receptor ([3H]8-OH-DPAT binding, HEK-293 cell homogenates); conditions: 0.3 nM [3H]8-OH-DPAT, human HEK-293 cell homogenates, 22° C., 60 minutes; Ki from IC50 by ChengPrusoff equation
Sequence of human 5-HT1A receptor (P08908 whole entry): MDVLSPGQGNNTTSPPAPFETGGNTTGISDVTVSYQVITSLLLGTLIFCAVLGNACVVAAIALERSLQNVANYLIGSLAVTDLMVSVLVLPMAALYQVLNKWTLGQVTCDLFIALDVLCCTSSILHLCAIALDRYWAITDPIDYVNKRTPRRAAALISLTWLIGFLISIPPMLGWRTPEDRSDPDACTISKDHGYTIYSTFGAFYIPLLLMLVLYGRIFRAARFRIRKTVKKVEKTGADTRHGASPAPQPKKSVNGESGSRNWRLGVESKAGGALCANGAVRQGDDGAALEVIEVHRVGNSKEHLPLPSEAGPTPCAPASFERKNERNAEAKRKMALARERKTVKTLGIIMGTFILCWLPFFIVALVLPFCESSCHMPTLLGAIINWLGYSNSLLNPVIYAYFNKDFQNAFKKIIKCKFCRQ
Method: Human HEK-293 cell homogenates (36 μg protein) were incubated at 22° C. for 60 minutes with 0.3 nM [^3H]8-0H-DPAT (Perkin-Elmer) in the absence or presence of the test compound in a buffer solution containing 50 mM Tris-HCl (pH 7.4), 10 mM MgSO4, 0.5 mM EDTA and 2 μg/ml aprotinine.
The non-specific binding value was determined by incubating the same mixture in the presence of 10 μM 8-OH-DPAT, which was used as the standard reference compound and tested in each experiment at several concentrations to obtain a competition curve.
Following the incubation, the samples were filtered rapidly under vacuum through glass fiber filter (GF/B, Packard) presoaked with 0.3% PEI and rinsed several times with ice-cold 50 mM Tris-HCl using a 96-sample cell harvester (Unifilter, Packard). The filters were dried and the retained radioactivity was measured in a scintillation counter (Topcount, Packard) using a scintillation cocktail (Microscint 0, Packard). The experimental results were expressed as a percent inhibition of the control radioligand specific binding.
Binding assay of [^3H] 8-OH-DPAT (0.3 nM) with 5-HT1A receptor in human HEK-293 cell was tested by scintillation proximity assay of membrane.

Sequence of serotonin transporter in rat synaptosome (P31652 whole entry): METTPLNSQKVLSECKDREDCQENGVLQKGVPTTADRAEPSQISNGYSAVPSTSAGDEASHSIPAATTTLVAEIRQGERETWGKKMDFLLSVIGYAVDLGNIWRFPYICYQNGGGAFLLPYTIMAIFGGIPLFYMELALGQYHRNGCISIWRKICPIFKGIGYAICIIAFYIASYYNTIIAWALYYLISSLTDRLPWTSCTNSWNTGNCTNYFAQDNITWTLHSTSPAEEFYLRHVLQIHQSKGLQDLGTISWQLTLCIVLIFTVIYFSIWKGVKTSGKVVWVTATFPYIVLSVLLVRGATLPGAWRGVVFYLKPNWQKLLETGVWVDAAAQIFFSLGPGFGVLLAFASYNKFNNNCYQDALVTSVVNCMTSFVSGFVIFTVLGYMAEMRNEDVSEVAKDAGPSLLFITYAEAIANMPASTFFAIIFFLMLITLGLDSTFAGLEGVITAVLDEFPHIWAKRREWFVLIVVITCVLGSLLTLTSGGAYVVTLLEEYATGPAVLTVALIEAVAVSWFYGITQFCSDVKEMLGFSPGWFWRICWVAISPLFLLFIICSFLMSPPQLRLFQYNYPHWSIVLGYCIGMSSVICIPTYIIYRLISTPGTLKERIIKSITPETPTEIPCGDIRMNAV

| Structure (SMILES) | IC50 [1] [nM] | Ki [2] [nM] |
| --- | --- | --- |
| O=C1CCCCN1c1ccc(N2CCN(CCCCc3c[nH]c4ccc(F)cc34)CC2)cc1 [Example 1, 1-(4-(4-(4-(5-fluoro-1H-indol-3-yl)butyl)piperazin-1-yl)phenyl)piperidin-2-one] | 4.3 | 2.5 |
| N#Cc1ccc2[nH]cc(CCCCN3CCN(c4ccc(N5CCCCC5=O)cc4)CC3)c2c1 [Example 2, 3-(4-(4-(4-(2-oxopiperidin-1-yl)phenyl)piperazin-1-yl)butyl)-1H-indole-5-carbonitrile] | 1.8 | 1.9 |
| O=C1CCCCN1c1ccc(N2CCN(CCCc3c[nH]c4ccc(F)cc34)CC2)cc1 [Example 3, 1-(4-(4-(3-(5-fluoro-1H-indol-3-yl)propyl)piperazin-1-yl)phenyl)piperidin-2-one] | 4.2 | 3.2 |
| N#Cc1ccc2[nH]cc(CCCN3CCN(c4ccc(N5CCCCC5=O)cc4)CC3)c2c1 [Example 4, 3-(3-(4-(4-(2-oxopiperidin-1-yl)phenyl)piperazin-1-yl)propyl)-1H-indole-5-carbonitrile] | 8.5 | 1.2 |
| O=C1COCCN1c1ccc(N2CCN(CCCCc3c[nH]c4ccc(F)cc34)CC2)cc1 [Example 5, 4-(4-(4-(4-(5-fluoro-1H-indol-3-yl)butyl)piperazin-1-yl)phenyl)morpholin-3-one] | 6.3 | 3.1 |
| N#Cc1ccc2[nH]cc(CCCCN3CCN(c4ccc(N5CCOCC5=O)cc4)CC3)c2c1 [Example 6, 3-(4-(4-(4-(3-oxomorpholino)phenyl)piperazin-1-yl)butyl)-1H-indole-5-carbonitrile] | 2.2 | 2.1 |
| O=C1COCCN1c1ccc(N2CCN(CCCc3c[nH]c4ccc(F)cc34)CC2)cc1 [Example 7, 4-(4-(4-(3-(5-fluoro-1H-indol-3-yl)propyl)piperazin-1-yl)phenyl)morpholin-3-one] | 7.3 | 6.4 |
| N#Cc1ccc2[nH]cc(CCCN3CCN(c4ccc(N5CCOCC5=O)cc4)CC3)c2c1 [Example 8, 3-(3-(4-(4-(3-oxomorpholino)phenyl)piperazin-1-yl)propyl)-1H-indole-5-carbonitrile] | 10 | 3.2 |
| N#Cc1ccc2[nH]cc(CCCCN3CCN(c4ccc(-n5ccccc5=O)cc4)CC3)c2c1 [Example 9, 3-(4-(4-(4-(2-oxopyridin-1(2H)-yl)phenyl)piperazin-1-yl)butyl)-1H-indole-5-carbonitrile] | 8 | 0.23 |
| O=c1ccccn1-c1ccc(N2CCN(CCCCc3c[nH]c4ccc(F)cc34)CC2)cc1 [Example 10, 1-(4-(4-(4-(5-fluoro-1H-indol-3-yl)butyl)piperazin-1-yl)phenyl)pyridin-2(1H)-one] | 1.6 | 0.19 |
| N#Cc1ccc2[nH]cc(CCCN3CCN(c4ccc(-n5ccccc5=O)cc4)CC3)c2c1 [Example 11, 3-(3-(4-(4-(2-oxopyridin-1(2H)-yl)phenyl)piperazin-1-yl)propyl)-1H-indole-5-carbonitrile] | 0.98 | 1.2 |
| O=c1ccccn1-c1ccc(N2CCN(CCCc3c[nH]c4ccc(F)cc34)CC2)cc1 [Example 12, 1-(4-(4-(3-(5-fluoro-1H-indol-3-yl)propyl)piperazin-1-yl)phenyl)pyridin-2(1H)-one] | 7.1 | 0.87 |
| N#Cc1ccc2[nH]cc(CCN3CCN(c4ccc(-n5ccccc5=O)cc4)CC3)c2c1 [Example 13, 3-(2-(4-(4-(2-oxopyridin-1(2H)-yl)phenyl)piperazin-1-yl)ethyl)-1H-indole-5-carbonitrile] | 2.6 | 54 |
| N#Cc1ccc2[nH]cc(CCCCCN3CCN(c4ccc(-n5ccccc5=O)cc4)CC3)c2c1 [Example 14, 3-(5-(4-(4-(2-oxopyridin-1(2H)-yl)phenyl)piperazin-1-yl)pentyl)-1H-indole-5-carbonitrile] | 1.4 | 4.1 |
| N#Cc1ccc2[nH]cc(C(O)CCCN3CCN(c4ccc(-n5ccccc5=O)cc4)CC3)c2c1 (stereo not shown) [Example 15, 3-(1-hydroxy-4-(4-(4-(2-oxopyridin-1(2H)-yl)phenyl)piperazin-1-yl)butyl)-1H-indole-5-carbonitrile] | 330 | – |
| N#Cc1ccc2[nH]cc(C(O)CCN3CCN(c4ccc(-n5ccccc5=O)cc4)CC3)c2c1 (stereo not shown) [Example 16, 3-(1-hydroxy-3-(4-(4-(2-oxopyridin-1(2H)-yl)phenyl)piperazin-1-yl)propyl)-1H-indole-5-carbonitrile] | 170 | – |
| Cc1ccn(-c2ccc(N3CCN(CCCCc4c[nH]c5ccc(C#N)cc45)CC3)cc2)c(=O)c1 [Example 17, 3-(4-(4-(4-(4-methyl-2-oxopyridin-1(2H)-yl)phenyl)piperazin-1-yl)butyl)-1H-indole-5-carbonitrile] | 1.7 | 0.48 |
| Cc1ccn(-c2ccc(N3CCN(CCCc4c[nH]c5ccc(C#N)cc45)CC3)cc2)c(=O)c1 [Example 18, 3-(3-(4-(4-(4-methyl-2-oxopyridin-1(2H)-yl)phenyl)piperazin-1-yl)propyl)-1H-indole-5-carbonitrile] | 7.5 | 0.89 |
| Cc1ccn(-c2ccc(N3CCN(CCc4c[nH]c5ccc(C#N)cc45)CC3)cc2)c(=O)c1 [Example 19, 3-(2-(4-(4-(4-methyl-2-oxopyridin-1(2H)-yl)phenyl)piperazin-1-yl)ethyl)-1H-indole-5-carbonitrile] | 2 | 33 |
| Cc1ccn(-c2ccc(N3CCN(CCCCCc4c[nH]c5ccc(C#N)cc45)CC3)cc2)c(=O)c1 [Example 20, 3-(5-(4-(4-(4-methyl-2-oxopyridin-1(2H)-yl)phenyl)piperazin-1-yl)pentyl)-1H-indole-5-carbonitrile] | 3.6 | 4.7 |
| COc1ccn(-c2ccc(N3CCN(CCCCc4c[nH]c5ccc(C#N)cc45)CC3)cc2)c(=O)c1 [Example 21, 3-(4-(4-(4-(4-methoxy-2-oxopyridin-1(2H)-yl)phenyl)piperazin-1-yl)butyl)-1H-indole-5-carbonitrile] | 7.4 | 1.2 |
| COc1ccn(-c2ccc(N3CCN(CCCc4c[nH]c5ccc(C#N)cc45)CC3)cc2)c(=O)c1 [Example 22, 3-(3-(4-(4-(4-methoxy-2-oxopyridin-1(2H)-yl)phenyl)piperazin-1-yl)propyl)-1H-indole-5-carbonitrile] | 1.8 | 0.61 |
| COc1ccn(-c2ccc(N3CCN(CCc4c[nH]c5ccc(C#N)cc45)CC3)cc2)c(=O)c1 [Example 23, 3-(2-(4-(4-(4-methoxy-2-oxopyridin-1(2H)-yl)phenyl)piperazin-1-yl)ethyl)-1H-indole-5-carbonitrile] | 12 | – |
| COc1ccn(-c2ccc(N3CCN(CCCCCc4c[nH]c5ccc(C#N)cc45)CC3)cc2)c(=O)c1 [Example 24, 3-(5-(4-(4-(4-methoxy-2-oxopyridin-1(2H)-yl)phenyl)piperazin-1-yl)pentyl)-1H-indole-5-carbonitrile] | 5.5 | 12 |
| N#Cc1ccc2[nH]cc(CCCCN3CCN(c4ccc(-n5ccc6ccccc6c5=O)cc4)CC3)c2c1 [Example 29, 3-(4-(4-(4-(1-oxoisoquinolin-2(1H)-yl)phenyl)piperazin-1-yl)butyl)-1H-indole-5-carbonitrile] | 10 | – |
